{"source": "paper PMC6770469", "about": "“IDE Degrades Nociceptin/Orphanin FQ through an Insulin Regulated Mechanism” (International Journal of Molecular Sciences, 2019)", "key": {"[1]": {"target": "T1, insulin-degrading enzyme (IDE) (Homo sapiens, UniProt P14735)", "T1 construct": "purchased Giotto Biotech, Florence, Italy", "T1 sequence (P14735 whole entry, species assumed)": "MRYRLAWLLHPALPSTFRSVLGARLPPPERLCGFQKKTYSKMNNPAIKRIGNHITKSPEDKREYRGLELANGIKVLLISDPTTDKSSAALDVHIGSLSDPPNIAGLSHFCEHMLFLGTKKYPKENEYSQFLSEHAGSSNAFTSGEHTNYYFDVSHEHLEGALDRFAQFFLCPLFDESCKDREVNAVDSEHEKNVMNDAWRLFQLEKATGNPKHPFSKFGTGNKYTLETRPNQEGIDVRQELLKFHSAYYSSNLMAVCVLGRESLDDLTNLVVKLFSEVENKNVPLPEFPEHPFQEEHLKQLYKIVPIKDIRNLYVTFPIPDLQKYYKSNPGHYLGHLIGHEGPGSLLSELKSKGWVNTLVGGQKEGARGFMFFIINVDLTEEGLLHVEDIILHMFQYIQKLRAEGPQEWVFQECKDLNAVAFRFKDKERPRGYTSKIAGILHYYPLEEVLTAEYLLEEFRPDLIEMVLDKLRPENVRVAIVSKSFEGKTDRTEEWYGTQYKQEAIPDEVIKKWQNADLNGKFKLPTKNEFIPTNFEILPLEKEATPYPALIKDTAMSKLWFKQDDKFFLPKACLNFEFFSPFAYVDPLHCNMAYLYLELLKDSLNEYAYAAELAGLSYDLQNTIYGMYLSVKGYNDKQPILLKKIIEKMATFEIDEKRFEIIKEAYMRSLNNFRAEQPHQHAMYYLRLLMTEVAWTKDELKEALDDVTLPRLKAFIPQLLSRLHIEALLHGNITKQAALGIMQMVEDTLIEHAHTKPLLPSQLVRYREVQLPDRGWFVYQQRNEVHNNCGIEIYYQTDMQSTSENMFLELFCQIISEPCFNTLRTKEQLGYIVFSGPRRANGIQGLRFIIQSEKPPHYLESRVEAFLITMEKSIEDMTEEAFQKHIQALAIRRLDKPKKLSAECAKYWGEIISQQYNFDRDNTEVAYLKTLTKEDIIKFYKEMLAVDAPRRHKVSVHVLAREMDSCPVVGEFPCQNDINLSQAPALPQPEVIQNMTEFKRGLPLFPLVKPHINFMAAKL", "assay": "IDE degradation assays (time-course hydrolysis of the substrate, UPLC-HRMS)", "format": "in vitro ADME", "procedure": "IDE degradation assays: Insulin (Ins, 2 µM, purchased from Sigma, Milan, Italy) and nociceptin peptide (OFQ/N, 2 µM, synthesized by the Fmoc solid phase synthesis and purified in our laboratory using RP HPLC) were tested for their purity using electrospray mass spectrometry (over 98% purity), and hydrolyzed in the presence of insulin-degrading enzyme (IDE, 30 nM, purchased from Giotto Biotech, Florence, Italy) in phosphate buffer 1 mM (pH 7.4, Sigma). We applied 1-16 sequence of OFQ/N because there is no difference in binding of this fragment to NOP receptors. Ins and OFQ/N were hydrolyzed both separately and in a mixture. Moreover, a pre-incubation of OFQ/N with IDE for 20 min was also performed before the addition of Ins. In order to quench the reaction, the samples were diluted 1:1 with 1% TFA aqueous solution.\nThe peptide content of all samples was analyzed using a Q Exactive hybrid quadrupole-Orbitrap mass spectrometer (Thermo Scientific, Milan, Italy) coupled to an Ultimate 3000 HPLC RSLCnano system (Dionex Thermo Scientific, Milan, Italy) through an EASY-Spray source (Thermo Scientific, Milan, Italy) by using the instrument settings previously reported."}, "[2]": {"test_system": "rat spinal cord peptidases", "assay": "OFQ/N cleavage by rat spinal cord homogenate with peptidase inhibitors (MALDI-MS)", "format": "biochemical", "settings": "rat spinal cord extract, 20 mM Tris-HCl 1 mM EDTA pH 7.8, 37 °C, 30 min; for inhibition of the formation of the (1-11) fragment from OFQ/N: PHMB 0.25 mM, pepstatin A 0.01 mM (Figure 6); for inhibition of the cleavage of OFQ/N into the bioactive fragments (1-11), (1-7), (1-6): TPCK 1 mM, PMSF 1 mM, NEM 1 mM (Figure 6)", "procedure": "Tissue homogenate preparation: One rat spinal cord tissue was homogenized in 1 mL of ice-cold 20 mM Tris-HCl (Sigma, Milan, Italy) and 1 mM EDTA (Sigma, Milan, Sigma) using mechanical homogenizer. The obtained homogenate was centrifuged at 5000× g for 15 min at 4 °C. The supernatant was then centrifuged at 20,000× g for 15 min at 4 °C. Finally, the supernatant was divided into small aliquots and kept frozen at −80 °C [13].\nTissue extract (supernatant) incubation assays: Incubations were performed using one microliter of tissue extract diluted with 19 µL of 20 mM Tris-HCl 1 mM EDTA buffer pH 7.8 and 10 µL of Milli-Q water. Then, the reaction was initiated by the addition of 10 µL of OFQ/N 0.3 mM and continued at 37 °C for 30 min. Then, 40 µL of ice-cold methanol was used to stop the reaction. Incubation was repeated as mentioned above but adding different peptidase inhibitors. The inhibitors used for the incubation were: TPCK (tosyl phenylalanyl chloromethyl ketone) 1 mM, PMSF (phenylmethylsulfonyl fluoride) 1 mM, NEM (N-ethylmaleimide) 1 mM, PHMB (4-(hydroxymercuri)benzoic acid) 0.25 mM, pepstatin A 0.01 mM, and Ag^+ 1 mM. Enzyme assay including spinal cord homogenate was also validated using dynorphin B, as described previously. One microliter aliquots taken from each incubation mixture were analyzed using MALDI mass spectrometry. α-Cyano-4-hydroxycinnamic acid (4-HCCA) was used as matrix, and the final samples were spotted onto AnchorChip™ plate (Bruker Daltonics, 2013). The standard used for the calibration of the instrument is the Peptide Calibration Standard II by Bruker Daltonics, Macerata, Italy. Details and parameters of the instrument set-up were: mass range: 340–4000 Da; detector gain/reflector: 6.3x (2480 V); sample rate and digitizer settings: 2.50 GS/s; smartbeam parameter set: 4_large; positive ion mode; matrix suppression: off; random walk: complete sample; shots at raster spot: 200; limit diameter to: 800 µm; laser power: 20%; shots: 5000."}, "mouse": {"test_system": "mouse", "settings": "cited from earlier work"}}, "note": "Where a SMILES comes first, the peptide text is derived from it. Where no end group is shown, it is not given here. [ ]: non-standard residue; d: D form. The star is where a group is joined. Sta = CC(C)C[C@H](N)[C@@H](O)CC(=O)O; Isovaleryl = CC(C)CC(=O)*"}
{"molecule": "FGGFTGARKSARKLAN [OFQ/N, Nociceptin/Orphanin 1-16]", "values": [{"measurement": "time within which the substrate was almost completely degraded by IDE", "setting": "[1]; OFQ/N 2 µM alone, IDE 30 nM, phosphate buffer 1 mM pH 7.4, 37 °C, LC-MS (Figure 3A)", "value": "≤ 10", "unit": "min"}, {"measurement": "OFQ/N content as % of the original value", "setting": "[1]; OFQ/N and Ins 1:1 molar ratio (2 µM each) co-incubated with IDE 30 nM, phosphate buffer 1 mM pH 7.4, 37 °C, 30 min reaction, LC-MS (Figure 3B)", "value": 80, "unit": "%"}, {"measurement": "content of OFQ/N, fold lower than its starting value", "setting": "[1]; after 20 min pre-incubation of OFQ/N 2 µM with IDE 30 nM at 37 °C, before addition of Ins, phosphate buffer 1 mM pH 7.4, LC-MS (Figure 4A)", "value": 5, "unit": "fold"}]}
{"molecule": "O=C(O)c1cc[c]([Hg][OH])cc1", "note": "[PHMB, 4-(hydroxymercuri)benzoic acid]", "values": [{"measurement": "inhibition of the formation of (1-7) and (1-6) from OFQ/N", "setting": "[2]; PHMB 0.25 mM (Figure 6)", "value": "inhibits"}, {"measurement": "inhibition of the formation of the (1-11) fragment from OFQ/N", "setting": "[2]", "value": "blocks the formation of the (1-11)fragment more than all the other inhibitors"}]}
{"molecule": "CCN1C(=O)C=CC1=O", "note": "[NEM, N-ethylmaleimide]", "values": [{"measurement": "inhibition of the cleavage of OFQ/N into the bioactive fragments (1-11), (1-7), (1-6)", "setting": "[2]", "value": "does not show inhibition"}]}
{"molecule": "Cc1ccc(S(=O)(=O)N[C@@H](Cc2ccccc2)C(=O)CCl)cc1", "note": "[TPCK, tosyl phenylalanyl chloromethyl ketone]", "values": [{"measurement": "inhibition of the cleavage of OFQ/N into the bioactive fragments (1-11), (1-7), (1-6)", "setting": "[2]", "value": "not efficiently inhibited"}]}
{"molecule": "CC(C)CC(=O)N[C@H](C(=O)N[C@H](C(=O)N[C@@H](CC(C)C)[C@@H](O)CC(=O)N[C@@H](C)C(=O)N[C@@H](CC(C)C)[C@@H](O)CC(=O)O)C(C)C)C(C)C", "note": "[Pepstatin A] (Isovaleryl-VV[Sta]A[Sta]-OH)", "values": [{"measurement": "inhibition of the formation of the (1-11) fragment from OFQ/N", "setting": "[2]", "value": "slightly inhibits"}]}
{"molecule": "(1-6): OFQ/N fragment (1-6), final product from (1-11) (FGGFTG; Nociceptin; UniProt Q13519 130-135, looked up, fragment)", "values": [{"measurement": "effect in different analgesic tests (bi-phasic)", "setting": "mouse; after ICV (Intracerebroventricular) and intrathecal injection, as reported in the literature", "value": "antinociception followed by a hyperalgesia"}]}
{"molecule": "O=S(=O)(F)Cc1ccccc1", "note": "[PMSF, phenylmethylsulfonyl fluoride]", "values": [{"measurement": "inhibition of the cleavage of OFQ/N into the bioactive fragments (1-11), (1-7), (1-6)", "setting": "[2]", "value": "not efficiently inhibited"}]}
{"molecule": "(1-7): OFQ/N fragment (1-7), bioactive shorter sequence (FGGFTGA; Nociceptin; UniProt Q13519 130-136, looked up, fragment)", "values": [{"measurement": "effect on hyperalgesia induced by OFQ/N", "setting": "mouse; injected in mice", "value": "blocks hyperalgesia"}]}
